The values below come from patent publication US7858806B2, “Crystal form of 5-hydroxy-1-methylhydantoin” (Nippon Zoki Pharmaceutical Co., Ltd., priority 2002, dated 2010).

Holding throughout (format): physicochemical
Series [1] can be described thus: Measurement of bulk density (graduated cylinder, before and after tight packing). To be noted: 40 g in graduated cylinder; for Bulk Density After Tight Packing: after patting until volume unchanged. How it is done: Each 40 g of the I-form crystals produced in Reference Example 1 and the II-form crystals produced in Example 2 were placed in a graduated cylinder to measure the volume whereby bulk density was calculated. After that, each graduated cylinder was lightly patted by hand under the same condition until the volume of the dry powder became unchanged so that the crystals were tightly packed. The volume after the tight packing was measured and bulk density was calculated.

Series [2] is described as follows: Adhesion onto solid surface during handling. To be noted: II-form compared with I-form crystals, after various handlings. How it is done:
In addition, in the II-form crystals of the present invention, the bulk density is higher than in the I-form crystals and the volume for the same weight is small whereby it is now possible to manufacture small tablets and so to provide the tablets which are easily administered to patients. The advantage of high bulk density is also advantageous in terms of storage and handling when production is conducted in an industrial scale. Further, it has been found after various handlings of both II-form crystals and I-form crystals that adhesion onto the solid surface such as glass wall is lower in the II-form crystals than in the I-form crystals. Accordingly, in the case of the II-form crystals, loss during the manufacture can be reduced and labor such as cleaning and checking for removal of adhered things to the manufacturing devices and apparatuses can be reduced as well.

A short description of series [3]: Stability of the crystal form.
A short description of another series: Solubility in water.

Structures are written as SMILES. “Also recorded” adds a separate entry of the source.

In the case of `CN1C(=O)NC(=O)C1O` (stereo not shown) [I-form crystals, 5-hydroxy-1-methylimidazolidin-2,4-dione, reference compound], in series [1] (listed as I-form Crystals), the “Bulk Density After Tight Packing” value amounted to 0.46 g/mL and the “Bulk Density Before Tight Packing” value came to 0.35 g/mL.

For the compound `CN1C(=O)NC(=O)C1O` (stereo not shown) [II-form crystals, 5-hydroxy-1-methylimidazolidin-2,4-dione], in series [1] (listed as II-form Crystals), the “Bulk Density After Tight Packing” value is on record as 0.64 g/mL and the “Bulk Density Before Tight Packing” value is 0.54 g/mL. Further, the “adhesion onto the solid surface such as glass wall” value in series [2] is listed as “lower”. For the same compound, the stability entry in series [3] is on record as “sufficient stability”.

As to `CN1C(=O)NC(=O)C1O` (stereo not shown) [5-hydroxy-1-methylhydantoin, 5-hydroxy-1-methylimidazolidin-2,4-dione], the solubility in water result in the series “Solubility in water” is reported as “very highly soluble in water; also recorded: very easily soluble in water”.
